In patent US20020049299A1, “Synthetic soil-extract materials and medicaments for hemorrhagic fever viruses based thereon” (priority 1997, published 2002):
Values after ≈ are worked out from the molar mass of the structure shown.

Assays:
Type in all cases: cell-based
[1] = system: Pichinde hemorrhagic fever virus 4763; assay: microbe, parasite or virus in culture; details: BSC-1, read-out: CPE EC50
[2] = system: Punta Toro A hemorrhagic fever virus type Adames; assay: Punta Toro A virus cytoprotection, inhibition of CPE; details: LLC-MK2, read-out: CPE EC50
[3] = system: Punta Toro A hemorrhagic fever virus type Adames; assay: Punta Toro A virus cytoprotection, neutral red dye uptake; details: Punta Toro A virus in LLC-MK2 cells
Description: (§1) The second cytoprotection assay protocol, employed to validate the CPE results, was as follows: in the neutral red dye uptake version of the antiviral test protocol described immediately above, the same 96-well microplates were utilized after the CPE had been read. Neutral red dye was then added to the medium: cells not damaged by virus take up a greater amount of dye, which can be read on a computerized micro plate autoreader (the method is described in detail by McManus: Appl. Environ. Microbiol. 1976, 31, 35-38).
(§2) Punta Toro A hemorrhagic fever virus type Adames was obtained from the Center for Disease Control (CDC). The test cell line consisted of adult Rhesus monkey kidney cells (LLC-MK2).
The two protocols used to determine the cytoprotection properties of the humate materials were as described in Example 20.

[4] = system: Punta Toro A hemorrhagic fever virus type Adames; assay: Punta Toro A virus time-of-addition cytoprotection, CPE method
[5] = system: Punta Toro A hemorrhagic fever virus type Adames; assay: Punta Toro A virus time-of-addition cytoprotection, NR method
Description: as §1, §2
The two protocols used to determine the cytoprotection properties of the humate materials were as described in Example 20, except that drugs were added at specific times to the test wells containing virus.

[6] = system: Pichinde hemorrhagic fever virus 4763

**Q.** Which EC50 [1] does the source give for NC(=O)c1ncn([C@@H]2O[C@H](CO)[C@@H](O)[C@H]2O)n1 [Ribavirin] here?
**A.** The EC50 was 0.3 µg/mL (≈ 1.23 µM).

**Q.** What about the EC50 [2] of the same molecule?
**A.** The EC50 was 5 µg/mL (≈ 20.5 µM).

**Q.** What about the “NR EC99” value [3] of the same molecule?
**A.** Its value is 5 micrograms per milliliter.

**Q.** And the EC50 ([4]; 0 h, read-out: EC50, CPE method, time of addition 0 hours)?
**A.** The EC50 was 4 µg/mL (≈ 16.4 µM).

**Q.** And the EC50 ([4]; 1 h, read-out: EC50, CPE method, time of addition 1 hours)?
**A.** The EC50 was 4 µg/mL (≈ 16.4 µM).

**Q.** And the EC50 ([4]; 1 h, read-out: EC50, CPE method, time of addition −1 hours)?
**A.** The EC50 was 10 µg/mL (≈ 40.9 µM).

**Q.** And the EC50 ([4]; 2 h, read-out: EC50, CPE method, time of addition 2 hours)?
**A.** Its EC50 is 8 µg/mL (≈ 32.8 µM).

**Q.** And the EC50 ([4]; 4 h, read-out: EC50, CPE method, time of addition 4 hours)?
**A.** The EC50 was 4 µg/mL (≈ 16.4 µM).

**Q.** What about the EC50 ([4]; 6 h, read-out: EC50, CPE method, time of addition 6 hours) of the same molecule?
**A.** The EC50 was 10 µg/mL (≈ 40.9 µM).

**Q.** And the EC50 ([4]; 8 h, read-out: EC50, CPE method, time of addition 8 hours)?
**A.** The EC50 was 8 µg/mL (≈ 32.8 µM).

**Q.** And the EC50 ([4]; 12 h, read-out: EC50, CPE method, time of addition 12 hours)?
**A.** Its EC50 is 8 µg/mL (≈ 32.8 µM).

**Q.** What about the EC50 ([4]; 24 h, read-out: EC50, CPE method, time of addition 24 hours) of the same molecule?
**A.** The EC50 was 2 µg/mL (≈ 8.19 µM).

**Q.** And the EC50 ([5]; 0 h, read-out: EC50, NR method, time of addition 0 hours)?
**A.** Its EC50 is 3 µg/mL (≈ 12.3 µM).

**Q.** What about the EC50 ([5]; 1 h, read-out: EC50, NR method, time of addition 1 hours) of the same molecule?
**A.** Its EC50 is 5 µg/mL (≈ 20.5 µM).

**Q.** And the EC50 ([5]; 1 h, read-out: EC50, NR method, time of addition −1 hours)?
**A.** Its EC50 is 6 µg/mL (≈ 24.6 µM).

**Q.** And the EC50 ([5]; 2 h, read-out: EC50, NR method, time of addition 2 hours)?
**A.** Its EC50 is 5 µg/mL (≈ 20.5 µM).

**Q.** And the EC50 ([5]; 4 h, read-out: EC50, NR method, time of addition 4 hours)?
**A.** Its EC50 is 9 µg/mL (≈ 36.9 µM).

**Q.** And the EC50 ([5]; 6 h, read-out: EC50, NR method, time of addition 6 hours)?
**A.** Its EC50 is 8 µg/mL (≈ 32.8 µM).

**Q.** What about the EC50 ([5]; 8 h, read-out: EC50, NR method, time of addition 8 hours) of the same molecule?
**A.** The EC50 was 10 µg/mL (≈ 40.9 µM).

**Q.** And the EC50 ([5]; 12 h, read-out: EC50, NR method, time of addition 12 hours)?
**A.** The EC50 was 12 µg/mL (≈ 49.1 µM).

**Q.** What about the EC50 ([5]; 24 h, read-out: EC50, NR method, time of addition 24 hours) of the same molecule?
**A.** Its EC50 is 35 µg/mL (≈ 143 µM).

**Q.** And the “NR EC99” value [6]?
**A.** Its value is less than 1 micrograms per milliliter.
